From ChEMBL document CHEMBL6092220 (J Med Chem, 2024)
Calls of active or inactive are those of the source. No cut-off for these calls is given here.

Tests used:
[1] = target: T1, Protein cereblon/Signal transducer and activator of transcription 3 (Mus musculus) (UniProt P42227+Q8C7D2); test: In-vivo PROTAC activity at STAT3/CRBN in female CB17 SCID mouse assessed as reduction STAT3 level spleen at 10 mg/kg, iv measured at 24 hrs by Western blot analysis; type: functional, organism-based; design: scale not given: the % may be the effect or the level left
[2] = target: T2, Protein cereblon/Signal transducer and activator of transcription 3 (Homo sapiens, UniProt P40763+Q96SW2); test: PROTAC activity at his-SUMO-tagged STAT3 (127 to 688 residues)/CRBN in human HeLa cells assessed as induction of STAT3 degradation incubated for 24 hrs by TECAN SPARK microplate reader analysis relative to control; type: cell-based
[3] = target: T2, Protein cereblon/Signal transducer and activator of transcription 3; test: PROTAC activity at his-SUMO-tagged STAT3 (127 to 688 residues)/CRBN in human HeLa cells assessed as induction of STAT3 degradation incubated for 24 hrs by TECAN SPARK microplate reader analysis; type: cell-based
[4] = target: T1, Protein cereblon/Signal transducer and activator of transcription 3 (Mus musculus); test: In-vivo PROTAC activity at STAT3/CRBN in female CB17 SCID mouse assessed as reduction STAT3 level liver at 10 mg/kg, iv measured at 24 hrs by Western blot analysis; type: functional, organism-based; design: scale not given: the % may be the effect or the level left
SU-DHL-1 = test: Antiproliferative activity against human SU-DHL-1 cells assessed as cell growth inhibition incubated for 4 days by celltiter-glo assay; type: functional, cell-based; conditions: SU-DHL-1, 96 h
[5] = Antiproliferative activity against human MOLM16 cells assessed as cell growth inhibition incubated for 4 days by celltiter-glo assay; type: functional, cell-based, MOLM-16; conditions: MOLM16, 96 h
[6] = Antiproliferative activity against human SUPM2 cells assessed as cell growth inhibition incubated for 4 days by celltiter-glo assay; type: functional, cell-based; conditions: SUP-M2, 96 h
[7] = Binding affinity to STAT5 (unknown origin) by FP assay; design: species or system Homo sapiens
[8] = target: T2, Protein cereblon/Signal transducer and activator of transcription 3; test: PROTAC activity at his-SUMO-tagged STAT3 (127 to 688 residues)/CRBN in human HeLa cells assessed as induction of STAT3 degradation upto 5 uM incubated for 24 hrs by TECAN SPARK microplate reader analysis; type: cell-based
[9] = target: T1, Protein cereblon/Signal transducer and activator of transcription 3 (Mus musculus); test: In-vivo PROTAC activity at STAT3/CRBN in female CB17 SCID mouse assessed as reduction STAT3 level spleen at 10 mg/kg, iv measured at 48 hrs by Western blot analysis; type: functional, organism-based; design: scale not given: the % may be the effect or the level left
[10] = target: T1, Protein cereblon/Signal transducer and activator of transcription 3 (Mus musculus); test: In-vivo PROTAC activity at STAT3/CRBN in female CB17 SCID mouse assessed as reduction STAT3 level spleen at 10 mg/kg, iv measured at 72 hrs by Western blot analysis; type: functional, organism-based; design: scale not given: the % may be the effect or the level left
[11] = target: T1, Protein cereblon/Signal transducer and activator of transcription 3 (Mus musculus); test: In-vivo PROTAC activity at STAT3/CRBN in female CB17 SCID mouse assessed as reduction STAT3 level liver at 10 mg/kg, iv measured at 72 hrs by Western blot analysis; type: functional, organism-based; design: scale not given: the % may be the effect or the level left
[12] = target: T1, Protein cereblon/Signal transducer and activator of transcription 3 (Mus musculus); test: In-vivo PROTAC activity at STAT3/CRBN in female CB17 SCID mouse assessed as reduction STAT3 level liver at 10 mg/kg, iv measured at 48 hrs by Western blot analysis; type: functional, organism-based; design: scale not given: the % may be the effect or the level left

SMILES	Emax [2] [%]	DC50 [3] [nM]	also measured
NC(=O)CC[C@H](NC(=O)[C@@H]1CC[C@@H]2CCNC[C@H](NC(=O)c3cc4cc(C(F)(F)P(=O)(O)O)ccc4s3)C(=O)N21)C(=O)N[C@@H](Cc1ccc(F)c(F)c1)C(=O)N1CCC(CCC#Cc2cccc3c2CN(C2CCC(=O)NC2=O)C3=O)CC1 (some centres not stated)	73	1200	Activity [1]: Active; Activity [4]: Active
CCN1CC[C@H]2CC[C@@H](C(=O)N[C@@H](CCC(N)=O)C(=O)N[C@@H](Cc3ccc(F)c(F)c3)C(=O)N3CCC(CCC#Cc4cccc5c4CN(C4CCC(=O)NC4=O)C5=O)CC3)N2C(=O)[C@@H](NC(=O)c2cc3cc(C(F)(F)P(=O)(O)O)ccc3s2)C1 (some centres not stated)	92	200	Activity [1]: 80%; IC50 (SU-DHL-1): 540 nM; IC50 [5]: 31 nM; IC50 [6]: 540 nM; Activity [4]: 80%
CN1CC[C@H]2CC[C@@H](C(=O)N[C@@H](CCC(N)=O)C(=O)N[C@@H](Cc3ccc(F)c(F)c3)C(=O)N3CCC(CCC#Cc4cccc5c4CN(C4CCC(=O)NC4=O)C5=O)CC3)N2C(=O)[C@@H](NC(=O)c2cc3cc(C(F)(F)P(=O)(O)O)ccc3s2)C1 (some centres not stated)	90	220	Activity [1]: 50%; Activity [4]: 80%
NC(=O)CC[C@H](NC(=O)[C@@H]1CC[C@@H]2CCN(C(=O)CCCCCC#Cc3cccc4c3CN(C3CCC(=O)NC3=O)C4=O)C[C@H](NC(=O)c3cc4cc(C(=O)P(=O)(O)O)ccc4[nH]3)C(=O)N21)C(=O)NC(c1ccccc1)c1ccccc1 (some centres not stated)	88	400	IC50 (SU-DHL-1): 300 nM; IC50 [5]: 22 nM; IC50 [6]: 470 nM
CN1CC[C@H]2CC[C@@H](C(=O)N[C@@H](CCC(N)=O)C(=O)N[C@H](C(=O)NCCCCC#Cc3cccc4c3CN(C3CCC(=O)NC3=O)C4=O)c3ccccc3)N2C(=O)[C@@H](NC(=O)c2cc3cc(C(F)(F)P(=O)(O)O)ccc3s2)C1 (some centres not stated)	42	> 5000	–
CN1CC[C@H]2CC[C@@H](C(=O)N[C@@H](CCC(N)=O)C(=O)N[C@H](CCC(=O)N3CCC(C#Cc4cccc5c4CN(C4CCC(=O)NC4=O)C5)CC3)c3ccccc3)N2C(=O)[C@@H](NC(=O)c2cc3cc(C(F)(F)P(=O)(O)O)ccc3s2)C1 (some centres not stated)	31	> 5000	–
CN1CC[C@H]2CC[C@@H](C(=O)N[C@@H](CCC(N)=O)C(=O)N[C@H](C(=O)N3CCC(CCC#Cc4cccc5c4CN(C4CCC(=O)NC4=O)C5=O)CC3)c3ccccc3)N2C(=O)[C@@H](NC(=O)c2cc3cc(C(F)(F)P(=O)(O)O)ccc3s2)C1 (some centres not stated)	86	300	–
CN1CC[C@H]2CC[C@@H](C(=O)N[C@@H](CCC(N)=O)C(=O)N[C@@H](Cc3ccccc3)C(=O)N3CCC(CCC#Cc4cccc5c4CN(C4CCC(=O)NC4=O)C5=O)CC3)N2C(=O)[C@@H](NC(=O)c2cc3cc(C(F)(F)P(=O)(O)O)ccc3s2)C1 (some centres not stated)	94	130	Activity [1]: 50%; IC50 [7]: > 10 nM; Activity [4]: 60%
CN1CC[C@H]2CC[C@@H](C(=O)N[C@@H](CCC(N)=O)C(=O)N[C@H](C(=O)NCCCC#Cc3cccc4c3CN(C3CCC(=O)NC3=O)C4=O)c3ccccc3)N2C(=O)[C@@H](NC(=O)c2cc3cc(C(F)(F)P(=O)(O)O)ccc3s2)C1 (some centres not stated)	16	> 5000	–
CN1CC[C@H]2CC[C@@H](C(=O)N[C@@H](CCC(N)=O)C(=O)N[C@](C)(C(=O)N3CCC(CCC#Cc4cccc5c4CN(C4CCC(=O)NC4=O)C5=O)CC3)c3ccccc3)N2C(=O)[C@@H](NC(=O)c2cc3cc(C(F)(F)P(=O)(O)O)ccc3s2)C1 (some centres not stated)	2	> 5000	Activity [8]: inactive
CN1CC[C@H]2CC[C@@H](C(=O)N[C@@H](CCC(N)=O)C(=O)N[C@@H](C(=O)NCCCCCCC#Cc3cccc4c3CN(C3CCC(=O)NC3=O)C4=O)c3ccccc3)N2C(=O)[C@@H](NC(=O)c2cc3cc(C(F)(F)P(=O)(O)O)ccc3s2)C1 (some centres not stated)	36	> 5000	–
CN1CC[C@H]2CC[C@@H](C(=O)N[C@@H](CCC(N)=O)C(=O)N[C@H](C(=O)NCCCCCC#Cc3cccc4c3CN(C3CCC(=O)NC3=O)C4=O)c3ccccc3)N2C(=O)[C@@H](NC(=O)c2cc3cc(C(F)(F)P(=O)(O)O)ccc3s2)C1 (some centres not stated)	34	> 5000	–
CN1CC[C@H]2CC[C@@H](C(=O)N[C@@H](CCC(N)=O)C(=O)N[C@@H](C(=O)N3CCC(CCC#Cc4cccc5c4CN(C4CCC(=O)NC4=O)C5=O)CC3)C(C)(C)C)N2C(=O)[C@@H](NC(=O)c2cc3cc(C(F)(F)P(=O)(O)O)ccc3s2)C1 (some centres not stated)	80	1010	–
CN1CC[C@H]2CC[C@@H](C(=O)N[C@@H](CCC(N)=O)C(=O)N[C@H](C(=O)N3CCN(CCC#Cc4cccc5c4CN(C4CCC(=O)NC4=O)C5=O)CC3)c3ccccc3)N2C(=O)[C@@H](NC(=O)c2cc3cc(C(F)(F)P(=O)(O)O)ccc3s2)C1 (some centres not stated)	62	2500	–
CN1CC[C@H]2CC[C@@H](C(=O)N[C@@H](CCC(N)=O)C(=O)N[C@@H](C(=O)NCCCCCCCCC#Cc3cccc4c3CN(C3CCC(=O)NC3=O)C4=O)c3ccccc3)N2C(=O)[C@@H](NC(=O)c2cc3cc(C(F)(F)P(=O)(O)O)ccc3s2)C1 (some centres not stated)	60	800	–
CN1CC[C@H]2CC[C@@H](C(=O)N[C@@H](CCC(N)=O)C(=O)NC3(C(=O)N4CCC(CCC#Cc5cccc6c5CN(C5CCC(=O)NC5=O)C6=O)CC4)CCCCC3)N2C(=O)[C@@H](NC(=O)c2cc3cc(C(F)(F)P(=O)(O)O)ccc3s2)C1 (some centres not stated)	0	> 5000	Activity [8]: inactive
CN1CC[C@H]2CC[C@@H](C(=O)N[C@@H](CCC(N)=O)C(=O)N[C@@H](Cc3ccc(F)cc3)C(=O)N3CCC(CCC#Cc4cccc5c4CN(C4CCC(=O)NC4=O)C5=O)CC3)N2C(=O)[C@@H](NC(=O)c2cc3cc(C(F)(F)P(=O)(O)O)ccc3s2)C1 (some centres not stated)	94	90	Activity [1]: 50%; Activity [4]: 70%
CN1CC[C@H]2CC[C@@H](C(=O)N[C@@H](CCC(N)=O)C(=O)N[C@H](C(=O)NCCCCCCCC#Cc3cccc4c3CN(C3CCC(=O)NC3=O)C4=O)c3ccccc3)N2C(=O)[C@@H](NC(=O)c2cc3cc(C(F)(F)P(=O)(O)O)ccc3s2)C1 (some centres not stated)	52	1500	–
CN1CC[C@H]2CC[C@@H](C(=O)N[C@@H](CCC(N)=O)C(=O)N[C@H](C(=O)N3CCC(CCC#Cc4cccc5c4CN(C4CCC(=O)NC4=O)C5=O)CC3)C3CCCCC3)N2C(=O)[C@@H](NC(=O)c2cc3cc(C(F)(F)P(=O)(O)O)ccc3s2)C1 (some centres not stated)	91	260	–
CN1CC[C@H]2CC[C@@H](C(=O)N[C@@H](CCC(N)=O)C(=O)N[C@H](CC(=O)N3CCC(C#Cc4cccc5c4CN(C4CCC(=O)NC4=O)C5)CC3)c3ccccc3)N2C(=O)[C@@H](NC(=O)c2cc3cc(C(F)(F)P(=O)(O)O)ccc3s2)C1 (some centres not stated)	0	> 5000	–
CC(C)N1CC[C@H]2CC[C@@H](C(=O)N[C@@H](CCC(N)=O)C(=O)N[C@@H](Cc3ccc(F)c(F)c3)C(=O)N3CCC(CCC#Cc4cccc5c4CN(C4CCC(=O)NC4=O)C5=O)CC3)N2C(=O)[C@@H](NC(=O)c2cc3cc(C(F)(F)P(=O)(O)O)ccc3s2)C1 (some centres not stated)	83	500	Activity [9]: > 90%; Activity [1]: > 90%; Activity [10]: > 90%; Activity [11]: > 90%; Activity [12]: > 90%; IC50 (SU-DHL-1): 1780 nM; IC50 [5]: 93 nM; IC50 [6]: 1550 nM; Activity [4]: > 90%
CN1CC[C@H]2CC[C@@H](C(=O)N[C@@H](CCC(N)=O)C(=O)N[C@H](C(=O)NCCCCCCCCCC#Cc3cccc4c3CN(C3CCC(=O)NC3=O)C4)c3ccccc3)N2C(=O)[C@@H](NC(=O)c2cc3cc(C(F)(F)P(=O)(O)O)ccc3s2)C1 (some centres not stated)	66	300	–
